# Assay results: ChEMBL document CHEMBL1201862, “PubChem BioAssay data set” (2004)
# Active and inactive are the calls of the source.
# What was measured:
# [1] = biological target: T1, Rac GTPase-activating protein 1 (Homo sapiens, UniProt Q9H0H5); experiment: MgcRacGAP GTPase-activating activity inhibitors, confirmation, biochemical, ADP Hunter fluorescence, primary and confirmatory (AID 624330); assay type: functional
# T1 sequence (Q9H0H5 whole entry): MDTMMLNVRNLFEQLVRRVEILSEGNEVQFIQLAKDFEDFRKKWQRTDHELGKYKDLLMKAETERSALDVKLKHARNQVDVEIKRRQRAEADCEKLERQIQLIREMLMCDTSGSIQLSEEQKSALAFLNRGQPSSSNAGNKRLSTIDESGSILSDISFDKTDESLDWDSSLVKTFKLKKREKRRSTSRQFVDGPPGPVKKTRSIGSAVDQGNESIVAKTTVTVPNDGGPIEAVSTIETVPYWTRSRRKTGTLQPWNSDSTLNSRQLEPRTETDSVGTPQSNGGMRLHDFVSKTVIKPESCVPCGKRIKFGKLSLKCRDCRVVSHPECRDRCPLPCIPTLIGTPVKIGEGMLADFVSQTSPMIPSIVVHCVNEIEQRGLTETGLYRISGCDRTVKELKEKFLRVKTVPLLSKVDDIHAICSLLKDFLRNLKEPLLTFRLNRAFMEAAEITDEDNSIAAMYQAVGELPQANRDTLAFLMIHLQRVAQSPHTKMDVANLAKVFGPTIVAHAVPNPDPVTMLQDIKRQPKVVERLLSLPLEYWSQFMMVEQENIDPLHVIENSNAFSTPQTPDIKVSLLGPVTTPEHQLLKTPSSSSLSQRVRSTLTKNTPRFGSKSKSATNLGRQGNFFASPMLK
# [2] = Luminescence Cell-Based Dose Retest to Confirm Inhibitors of Cancer Stem Cells. [Related pubchem assays (depositor defined):AID2717, AID2721]; assay type: functional; conditions: Homo sapiens
# [3] = biological target: T2, Heat shock factor protein 1 (Mus musculus, UniProt P38532); experiment: inhibition of MG132-induced HSE-luciferase signal, confirmation, cell-based, NIH3T3, luminescence, dose retest (AID 2382); assay type: functional;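 also: NIH3T3 fibroblasts with HSF1-driven luciferase reporter stressed by proteasome inhibitor MG132; luminescence from HSF1-driven luciferase expression after 8 hours of MG132 stress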
# T2 sequence (P38532 whole entry): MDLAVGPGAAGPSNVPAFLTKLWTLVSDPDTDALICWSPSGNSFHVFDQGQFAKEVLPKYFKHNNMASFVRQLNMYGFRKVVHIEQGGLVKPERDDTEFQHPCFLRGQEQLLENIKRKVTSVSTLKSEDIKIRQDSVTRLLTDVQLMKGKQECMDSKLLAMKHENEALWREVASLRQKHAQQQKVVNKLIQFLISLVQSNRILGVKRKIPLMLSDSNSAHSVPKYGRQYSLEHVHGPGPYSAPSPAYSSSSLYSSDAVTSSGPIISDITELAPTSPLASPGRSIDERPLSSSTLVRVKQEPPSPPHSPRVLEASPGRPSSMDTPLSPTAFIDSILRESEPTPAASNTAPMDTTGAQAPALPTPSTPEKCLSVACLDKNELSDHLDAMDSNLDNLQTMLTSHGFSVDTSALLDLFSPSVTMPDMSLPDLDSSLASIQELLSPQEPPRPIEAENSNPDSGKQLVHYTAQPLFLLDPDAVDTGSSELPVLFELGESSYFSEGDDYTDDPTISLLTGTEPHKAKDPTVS
# [4] = cytotoxicity toward NIH3T3 fibroblasts, dose response, counter-screen, cell-based, ATP luminescence, mouse fibroblasts (AID 2010); assay type: functional;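 also: cells exposed to compound for about 90 hours before reading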
# [5] = inhibitors of intracellular T. cruzi replication, confirmation, NIH3T3 host cells, beta-gal luminescence (AID 2044); assay type: functional, cell-based;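 also: intracellular parasites grown in NIH/3T3 mouse fibroblasts as host cells; luminescent beta-galactosidase reporter signal from transgenic T. cruzi replicating inside host cells; inhibitors lower the luminescence signal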
# [6] = biological target: FAD-linked sulfhydryl oxidase ALR (Homo sapiens, UniProt P55789); experiment: inhibitors of human ALR sulfhydryl oxidase, dose response, biochemical, H2O2 detection, luminescence, cherry-pick (AID 493248)
# Sequence of FAD-linked sulfhydryl oxidase ALR (P55789 whole entry): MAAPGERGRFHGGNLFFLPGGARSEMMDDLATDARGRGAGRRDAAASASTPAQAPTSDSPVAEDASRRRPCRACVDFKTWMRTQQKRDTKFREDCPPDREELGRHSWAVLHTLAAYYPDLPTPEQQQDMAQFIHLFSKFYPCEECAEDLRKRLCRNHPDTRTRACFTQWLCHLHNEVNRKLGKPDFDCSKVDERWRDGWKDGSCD
# [7] = Luminescence Cell-Based Dose Response HTS to Identify Inhibitors of 5'UTR Stem-Loop Driven Prion Protein mRNA Translation in H4 Neuroglioblastoma Cells. [Related pubchem assays: 1827 (Project Summary), 1813 (Primary HTS)]; assay type: functional
# [8] = inhibitors of firefly luciferase expression or activity, dose response, H4 neuroglioma cells, luminescence (AID 1990); assay type: functional, cell-based
# [9] = inhibitors of SNCA 5'UTR-driven reporter translation, confirmation, H4 neuroglioma cells, luminescence (AID 1988); assay type: functional, cell-based
# [10] = biological target: Large T antigen (Simian virus 40, UniProt P03070); assay type: functional, Betapolyomavirus macacae;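 also: Confirmatory-stage PubChem screen for compounds that inhibit SV40 T antigen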
# Sequence of Large T antigen (P03070 whole entry): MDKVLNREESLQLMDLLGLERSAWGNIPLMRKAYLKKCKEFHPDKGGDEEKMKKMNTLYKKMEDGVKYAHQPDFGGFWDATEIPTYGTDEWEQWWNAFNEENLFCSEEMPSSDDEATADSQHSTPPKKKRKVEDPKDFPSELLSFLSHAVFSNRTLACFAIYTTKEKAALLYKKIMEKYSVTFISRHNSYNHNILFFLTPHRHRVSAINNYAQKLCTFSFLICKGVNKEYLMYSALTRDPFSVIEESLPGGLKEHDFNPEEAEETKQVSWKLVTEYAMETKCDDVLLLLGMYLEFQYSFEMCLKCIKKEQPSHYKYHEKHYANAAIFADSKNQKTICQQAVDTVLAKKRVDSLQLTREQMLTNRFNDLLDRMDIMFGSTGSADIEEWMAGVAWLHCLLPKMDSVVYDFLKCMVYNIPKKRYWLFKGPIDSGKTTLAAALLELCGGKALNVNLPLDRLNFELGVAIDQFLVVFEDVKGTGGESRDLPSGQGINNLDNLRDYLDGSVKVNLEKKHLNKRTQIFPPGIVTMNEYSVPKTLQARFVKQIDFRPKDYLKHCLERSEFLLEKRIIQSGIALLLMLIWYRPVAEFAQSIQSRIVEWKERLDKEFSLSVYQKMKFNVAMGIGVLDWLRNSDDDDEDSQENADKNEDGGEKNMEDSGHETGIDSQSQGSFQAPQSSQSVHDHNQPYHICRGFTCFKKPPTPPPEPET
# [11] = biological target: T2, Heat shock factor protein 1; experiment: HSF1 potentiators in luciferase reporter cells, confirmation, cell-based, NIH3T3, luminescence, dose retest (AID 435004); assay type: functional;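 also: stress induced by proteasome inhibitor MG132 added 30 min after compound; luciferase reporter driven by HSF1 response element in NIH3T3 cells; actives raise luminescence as potentiators of the MG132 stress response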
# [12] = biological target: Cytochrome P450 2C19 (Homo sapiens, UniProt P33261); experiment: Cytochrome panel assay with activity outcomes. Panel member name: p450-cyp2c19 Compounds with AC50 equal or less than 10 uM are considered active; assay type: functional; conditions: read-out: AC50
# Sequence of Cytochrome P450 2C19 (P33261 whole entry): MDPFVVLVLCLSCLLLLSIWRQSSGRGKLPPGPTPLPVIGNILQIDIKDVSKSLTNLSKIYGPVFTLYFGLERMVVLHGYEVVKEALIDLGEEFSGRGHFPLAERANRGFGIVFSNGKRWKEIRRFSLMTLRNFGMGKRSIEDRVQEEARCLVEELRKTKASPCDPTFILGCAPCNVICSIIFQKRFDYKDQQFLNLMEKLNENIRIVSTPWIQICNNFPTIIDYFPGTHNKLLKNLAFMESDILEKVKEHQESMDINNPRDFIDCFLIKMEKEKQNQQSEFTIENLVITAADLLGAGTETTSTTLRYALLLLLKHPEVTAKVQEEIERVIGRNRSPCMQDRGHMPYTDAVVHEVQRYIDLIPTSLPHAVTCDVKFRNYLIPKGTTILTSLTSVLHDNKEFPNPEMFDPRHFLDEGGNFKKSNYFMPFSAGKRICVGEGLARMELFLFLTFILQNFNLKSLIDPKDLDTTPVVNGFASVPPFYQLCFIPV
# [13] = HEp-2 cell cytotoxicity, dose response, cytotoxicity control for RSV inhibitor project, HTS (AID 2410); assay type: functional; conditions: human respiratory syncytial virus
# [14] = Luminescence Cell-Based Dose Response HTS to Identify Activators of Luciferase Translation or Activity in H4 […] Cells. [Related pubchem assays: 1829 (Project Summary), 1814 (Primary HTS)]; assay type: functional
# [15] = tested on: H4; experiment: Luminescence Cell-Based Dose Response HTS to Identify Activators of 5'UTR Stem-Loop Driven Prion Protein mRNA Translation in H4 Neuroglioblastoma Cells. [Related pubchem assays: 1829 (Project Summary), 1814 (Primary HTS)]; assay type: functional; conditions: Homo sapiens
structure (smiles),measurement,setting,value
C=CCn1c(CNc2ccc(C)cc2)nnc1SCC(=O)N/N=C/c1ccc(O)cc1O,IC50,[1],85.1 µM (active)
same,AC50,[2],4.31 µM (active)
Cc1cccc(NC(=O)c2sc(-c3ccccc3)nc2-c2ccc([N+](=O)[O-])cc2)c1,EC50,[3],> 195 µM (not active)
same,EC50,[4],> 60 µM (not active)
same,EC50,[5],1.53 µM (active)
NNC(=O)c1ccc(O)cc1,AC50,[6],4.28 µM (active)
N#CCCn1cc(C(=O)Nc2ccc([N+](=O)[O-])cc2)c(-c2ccccc2)n1,EC50,[3],> 195 µM (not active)
[O-][n+]1onc2c3c4c(n(O)c3ccc21)CCCC4,AC50,[6],0.497 µM (active)
O=C(CN1CCN(c2ccc(O)cc2)CC1)Nc1ccc(S(=O)(=O)N2CCCC2)cc1,AC50,[6],0.699 µM (active)
CN(C)c1ccc(CNC(=O)C2CCN(S(=O)(=O)c3ccc4c(c3)CCCC(=O)N4)CC2)cc1,AC50,[6],5.99 µM (active)
CN(C)c1cccc(C(=O)NC2CCCCCC2)c1,AC50,[6],8.08 µM (active)
Cc1oc2c(C)c3oc(=O)c(CCC(=O)N4C[C@H]5C[C@@H](C4)c4cccc(=O)n4C5)c(C)c3cc2c1C,EC50,[7],> 120 µM (not active)
same,EC50,[8],65.1 µM (active)
same,EC50,[9],13.5 µM (active)
O=C(C1CCCN(S(=O)(=O)c2c[nH]cn2)C1)N1CCN(c2ccc(Cl)cc2)CC1 (stereo not given),AC50,[6],> 100 µM (inactive)
O=S(=O)(Nc1ccncc1)c1ccc(Cl)cc1,EC50,[3],> 195 µM (not active)
Cc1nnc(SCc2ccccc2)n1CC1CCCO1 (stereo not given),IC50,[10],> 100 µM (active)
Cc1ccc(CCNC(=O)C2CCN(S(=O)(=O)c3ccc4c(c3)NC(=O)CO4)CC2)cc1,EC50,[11],> 260 µM (inactive)
Cc1ccc(OCCC(=O)N2CCN(c3ccc(O)cc3)CC2)cc1,IC50,[10],11.8 µM (active)
Cc1ccc(C)c(Cn2nnc3c(=O)[nH]c(C4CCN(C(=O)c5cccs5)CC4)nc32)c1,EC50,[11],> 260 µM (inactive)
COc1cccc2c(N/N=C/c3ccc(O)c(O)c3)cc(C)nc12,IC50,[10],23.8 µM (active)
CCN(Cc1ccncc1)Cc1ccc(OC)c(OC)c1,IC50,[1],190 µM (active)
CC(=O)Nc1ccc(C2=NN(Cc3nnc(-c4ccccc4)o3)C(=O)SC2)cc1,EC50,[11],> 260 µM (inactive)
COc1ccc(/C=N/Nc2nc(N3CCCC3)nc(N3CCCC3)n2)cc1O,IC50,[1],62.2 µM (active)
same,IC50,[10],10.2 µM (active)
COCC/N=C1/Sc2nc3c(C)cccc3cc2CN1Cc1ccco1,AC50,[12],2.51 µM (inconclusive)
same,CC50,[13],39.2 µM (active)
same,IC50,[10],67.5 µM (active)
COc1ccc(/C=N/NC(=O)c2cc[n+]([O-])cc2)cc1O,IC50,[1],38.2 µM (active)
O=C1NC(=O)C(CCc2ccncc2)(Cc2cccc(Cl)c2Cl)C(=O)N1c1ccc(Br)cc1 (stereo not given),EC50,[7],18.9 µM (active)
same,EC50,[8],13.2 µM (active)
same,EC50,[9],13.9 µM (active)
CCc1ccc(/C=N/NC(=O)c2cc(C3CC3)nc3ccc(Br)cc23)s1,EC50,[7],9.75 µM (active)
same,EC50,[8],> 120 µM (not active)
same,EC50,[9],6.9 µM (active)
Cc1sc2ncnc(N3CCC(C(=O)N(C)CC(=O)Nc4ccc(Cl)c(C(F)(F)F)c4)CC3)c2c1C,EC50,[7],13 µM (active)
same,EC50,[8],7.86 µM (active)
same,EC50,[9],10.3 µM (active)
same,EC50,[4],> 60 µM (not active)
same,EC50,[5],2.73 µM (active)
same,AC50,[2],3.41 µM (active)
CC(C)(C)NC(=O)COC(=O)c1ccccc1Nc1ccc(SC(F)F)cc1,EC50,[14],23.9 µM (active)
same,EC50,[15],12.8 µM (active)
CC1Oc2ccccc2N(CC(=O)NCc2ccccc2)C1=O (stereo not given),EC50,[3],> 195 µM (not active)
O=C(CN(CC1CCCO1)S(=O)(=O)c1ccc(S(=O)(=O)NC2CC2)cc1)Nc1ccccc1 (stereo not given),EC50,[11],> 260 µM (inactive)
CCOC(=O)c1c(CN(C)C)n(C)c2ccc(OC(C)=O)cc12,EC50,[3],> 195 µM (not active)
CCOc1cc(C(c2c(O)nc(SC)nc2O)c2c(O)nc(SC)nc2O)ccc1O,IC50,[10],> 100 µM (active)
CCOC(=O)c1nnsc1Nc1ccc(C)c(C)c1,EC50,[11],104 µM (active)
COc1ccc(CCNC(=O)c2cccc([N+](=O)[O-])c2)cc1OC,EC50,[3],2.26 µM (active)
Cc1ccn2c(NC3CCCCC3)c(C(C)C)nc2c1,AC50,[6],2.82 µM (active)
CN(C)c1ccc(C(C[N+](=O)[O-])c2c(N)n(C)c(=O)n(C)c2=O)c(F)c1C#N (stereo not given),EC50,[11],> 260 µM (inactive)
CCN(CC)c1ccc(/C=N\NC(N)=O)cc1,IC50,[1],50.7 µM (active)
same,AC50,[6],0.825 µM (active)
Cc1ccn2c(NC(C)(C)C)c(-c3cccs3)nc2c1,AC50,[6],1.58 µM (active)
Nc1[nH]cnc2nc(SCCOc3ccc(Cl)cc3)nc1-2,EC50,[3],> 195 µM (not active)
Cc1ccc(-n2nc3c(=O)n(CCCC(=O)NCc4cccc(Cl)c4)nc(C)c3c2C)cc1,EC50,[7],74.3 µM (active)
same,EC50,[8],14.1 µM (active)
same,EC50,[9],61.6 µM (active)
same,CC50,[13],28.4 µM (active)
Cc1nc2sccn2c(=O)c1S(=O)(=O)Nc1ccc(N2CCOCC2)c(Cl)c1,EC50,[3],92.2 µM (active)
CC(C(=O)NC(=O)NC1CCCCC1)N1CCN(c2ccc(O)cc2)CC1 (stereo not given),IC50,[1],55.5 µM (active)
O=C(Cc1coc2cc(O)ccc12)N1CCN(S(=O)(=O)c2ccc(Br)cc2)CC1,IC50,[1],21.6 µM (active)
CN(C)c1ccc(N2C(=O)CC(Nc3ccc(N4CCOCC4)cc3)C2=O)cc1 (stereo not given),IC50,[10],12.9 µM (active)
COCCCNc1nc(S)nc2cc(OC)c(OC)cc12,IC50,[1],69.7 µM (active)
O=Nc1ccc(NOC(=O)c2ccccc2Br)cc1,IC50,[10],30.1 µM (active)
COCCCNC(=S)N/N=C/c1ccc(O)cc1O,IC50,[10],9.14 µM (active)
Cc1cccc(Oc2ccc3c(c2)cc(C(=O)O)n3C)c1,AC50,[6],0.211 µM (active)
COc1ccc(/C=C2\C(=O)ON=C2c2ccccc2)cc1,AC50,[6],66.4 µM (active)
COc1cccc(CNc2nc3ccccc3n2C(C)C)c1O,EC50,[11],> 260 µM (inactive)
COc1ccc(C2SCC(=O)N2c2ccc(F)cc2)cc1 (stereo not given),AC50,[6],0.049 µM (active)
